Source: ChEMBL document CHEMBL1811854, “Phenolic compounds from the roots of Jordanian viper's grass, Scorzonera judaica” (J Nat Prod, 2011)

Experiments:
Assay type in all cases: functional, cell-based
MCF7 = assay: Cytotoxicity against human MCF7 cells by MTT assay
HeLa = assay: Cytotoxicity against human HeLa cells by MTT assay
Jurkat = assay: Cytotoxicity against human Jurkat cells by MTT assay

Measured: IC50

O=C(Cc1cccc(O)c1C(=O)O)c1ccc(O)c(O)c1
> 100 µM: all assays above

C[C@@H]1O[C@@H](O[C@@H]2[C@@H](O)[C@H](Oc3ccc([C@@H]4Cc5cccc(O)c5C(=O)O4)cc3)O[C@H](CO)[C@H]2O)[C@H](O)[C@H](O)[C@H]1O
> 100 µM: all assays above

O=C1OC(c2ccc(O)c(O)c2)C/C1=C\c1ccc(O)c(O)c1 (configuration not stated)
> 100 µM: all assays above

O=C1OC(c2ccc(O)c(O)c2)=C/C1=C/c1ccc(O)c(O)c1
> 100 µM: all assays above

O=C(O)c1c(O)cccc1/C=C/c1ccc(O[C@@H]2O[C@H](CO)[C@@H](O)[C@H](O)[C@H]2O)cc1
> 100 µM: all assays above

COc1cc(C(=O)Cc2cccc(O)c2C(=O)O)cc(O)c1O
> 100 µM: all assays above

COc1cc([C@H]2O[C@H](O[C@@H]3O[C@H](CO)[C@@H](O)[C@H](O)[C@H]3O)[C@H]3[C@H]2CO[C@H]3c2ccc(O)c(OC)c2)ccc1O
> 100 µM: all assays above

O=C1O/C(=C\c2ccc(O)c(O)c2)c2cccc(O[C@@H]3O[C@H](CO)[C@@H](O)[C@H](O)[C@H]3O)c21
> 100 µM: all assays above

O=C(Cc1cccc(O)c1C(=O)O)c1ccc(O)cc1
> 100 µM: all assays above
